Reference: patent publication US7511063B2, “High affinity quinoline-based kinase ligands” (Schering Corporation, priority 2006, dated 2009)
Where two headings read alike, the source gives them in different places.

Target: CDK-2 (Homo sapiens, UniProt P24941)
Assay: Fluorescence polarization displacement assay (inhibitory effectiveness toward CDK-2)
Type: binding
Description: Fluorescence Polarization Assay
Binding assays were performed in a 384 well Costar NBS coated plate. […] The concentration of BMS-Alexa Fluor647 was 50 nM. Serial dilutions of compounds were added to 12 wells. The final buffer concentration was 10 mM Hepes, pH 7.5, 150 mM NaCl, and 1 mM DTT. Samples were incubated at room temperature for 15 minutes and then read in an Analyst HT instrument using an excitation and emission wavelength of 580 and 680 nm, respectively.

[1] = inhibitory effectiveness toward CDK-2, read-out: IC50

SMILES | IC50 [1] [µM] | IC50 (IC50) [µM]
COC(=O)[C@H](Cc1ccc(O)cc1)NC(=O)c1cc(C(=O)O)c2cc(-c3ccc(OC(F)(F)F)cc3)ccc2n1 [Compound 3] | < 1 | –
CCCCCCc1ccc2nc(C(=O)N[C@@H](Cc3ccc(O)cc3)C(=O)OC)cc(C(=O)O)c2c1 [Compound 4] | – | < 1
COC(=O)[C@H](Cc1ccc(O)cc1)NC(=O)c1cc(C(=O)O)c2cc(/C=C/c3ccc(Cl)cc3)ccc2n1 [Compound 7] | < 1 | –
COC(=O)[C@H](Cc1ccc(O)cc1)NC(=O)c1cc(C(=O)O)c2cc(CCc3ccc(Cl)cc3)ccc2n1 [Compound 9] | – | < 1
COC[C@H](Cc1ccc(O)cc1)NC(=O)c1cc(C(=O)O)c2cc(-c3cccc(C(F)(F)F)c3)ccc2n1 [Compound 13] | < 1 | –
COC[C@H](Cc1ccc(O)cc1)NC(=O)c1cc(C(=O)O)c2cc(/C=C/c3ccc(Cl)cc3)ccc2n1 [Compound 16] | – | < 1
CCCCCC#Cc1ccc2nc(C(=O)N[C@H](COC)Cc3ccc(O)cc3)cc(C(=O)O)c2c1 [Compound 19] | < 1 | –
CCCCCCCc1ccc2nc(C(=O)N[C@H](COC)Cc3ccc(O)cc3)cc(C(=O)O)c2c1 [Compound 20] | < 1 | –
CCCCC/C=C/c1ccc2nc(C(=O)N[C@H](COC)Cc3ccc(O)cc3)cc(C(=O)O)c2c1 [Compound 21] | < 1 | –
COC(=O)[C@H](Cc1ccc(O)cc1)NC(=O)c1cc(C(=O)O)c2cc(-c3cc(Cl)cc(Cl)c3)ccc2n1 [Compound 39] | < 1 | –
Cc1cnc([C@H](Cc2ccc(O)cc2)NCc2cc(C(=O)O)c3cc(-c4cccc(C(F)(F)F)c4)ccc3n2)o1 [Compound 45] | < 1 | –
COC[C@H](Cc1ccc(O)cc1)NC(=O)c1cc(C(=O)O)c2cc(OCc3ccc(C(F)(F)F)cc3)ccc2n1 [Compound 55] | < 1 | –
CO/N=C\[C@H](Cc1ccc(O)cc1)NC(=O)c1cc(C(=O)O)c2cc(-c3cccc(C(F)(F)F)c3)ccc2n1 [Compound 59] | < 1 | –
COC(=O)[C@H](Cc1ccc(O)cc1)NC(=O)c1cc(C(=O)O)c2cc(-c3ccccc3)ccc2n1 [Compound 73] | – | < 1
COC(=O)[C@H](Cc1ccc(O)cc1)NC(=O)c1cc(C(=O)O)c2cc(-c3ccsc3)ccc2n1 [Compound 90] | 1 to 40 | –
COC(=O)[C@H](Cc1ccc(F)cc1)NC(=O)c1cc(C(=O)O)c2cc(-c3cccc(C(F)(F)F)c3)ccc2n1 [Compound 109] | – | 1 to 40
COC(=O)[C@H](Cc1ccc(O)cc1)NC(=O)c1cc(C(=O)O)c2cc(-c3cccc(O)c3)ccc2n1 [Compound 120] | 1 to 40 | –

SMILES | IC50 [1] [µM] | IC50 (IC50) [µM]
COC(=O)[C@@H](NC(=O)c1cc(C(=O)O)c2cc(-c3cccc(C(F)(F)F)c3)ccc2n1)c1ccc(O)cc1 [Compound 122] | 1 to 40 | –
COC(=O)[C@H](Cc1ccccc1)NC(=O)c1cc(C(=O)O)c2cc(-c3cccs3)ccc2n1 [Compound 155] | > 40 | –
COC(=O)[C@H](Cc1ccc(OC)cc1)NC(=O)c1cc(C(=O)O)c2cc(-c3cccc(C(F)(F)F)c3)ccc2n1 [Compound 162] | – | > 40
COC(=O)[C@H](Cc1cccc(O)c1)NC(=O)c1cc(C(=O)O)c2cc(-c3cccc(C(F)(F)F)c3)ccc2n1 [Compound 163] | – | > 40
COC(=O)[C@@H](Cc1ccc(O)cc1)NC(=O)c1cc(C(=O)O)c2cc(-c3cccc(C(F)(F)F)c3)ccc2n1 [Compound 169] | – | > 40
O=C(N[C@@H](Cc1ccc(O)cc1)c1nnn[nH]1)c1cc(C(=O)O)c2cc(-c3cccc(C(F)(F)F)c3)ccc2n1 [Compound 170] | > 40 | –
COC[C@H](Cc1ccc(O)cc1)NCc1cc(C(=O)OCCO)c2cc(-c3cccc(C(F)(F)F)c3)ccc2n1 [Compound 173] | > 40 | –
COC[C@H](Cc1ccc(O)cc1)NCc1cc(C(=O)OCC(O)CO)c2cc(-c3cccc(C(F)(F)F)c3)ccc2n1 (stereo partly drawn) [Compound 174] | > 40 | –
COC[C@H](Cc1ccc(O)cc1)NCc1cc(C(=O)OCCN(C)C)c2cc(-c3cccc(C(F)(F)F)c3)ccc2n1 [Compound 175] | > 40 | –
COC[C@H](Cc1ccc(O)cc1)NCc1cc(C(=O)OC[C@@H](N)C(C)C)c2cc(-c3cccc(C(F)(F)F)c3)ccc2n1 [Compound 176] | > 40 | –
COC[C@H](Cc1ccc(O)cc1)NC(=O)c1cc(C(=O)O)c2cc(C#CCCO)ccc2n1 [Compound 186] | > 40 | –
COC[C@H](Cc1ccc(O)cc1)NC(=O)c1cc(C(=O)O)c2cc(CCCCO)ccc2n1 [Compound 189] | > 40 | –
COC[C@H](Cc1ccc(O)cc1)NC(=O)c1cc(C(=O)O)c2cc(-c3cccc(CN4CC[C@@H](O)C4)c3)ccc2n1 [Compound 192] | > 40 | –
COC[C@H](Cc1ccc(O)cc1)NC(=O)c1cc(C(=O)O)c2cc(COc3ccc(Cl)cc3)ccc2n1 [Compound 199] | > 40 | –
COC[C@H](Cc1ccc(O)cc1)NC(=O)c1cc(C(=O)O)c2cc(C#CCCn3cccn3)ccc2n1 [Compound 224] | > 40 | –
CC(C)(C)S(=O)(=O)NCc1cc(C(=O)N[C@H](CN)Cc2ccc(O)cc2)nc2ccc(C#Cc3ccccn3)cc12 [Compound 225] | > 40 | –
